Results taken from patent publication US10851089B2, “Matrix metalloproteinase (MMP) inhibitors and methods of use thereof” (Foresee Pharmaceuticals Co., Ltd., priority 2018, dated 2020).

What was measured:
[1] = molecular target: recombinant human MMP-9 (Homo sapiens (Human), UniProt P14780); test: MMP selectivity assay MMP-9; assay type: biochemical
Protocol: (§1) The inhibitory effect of compounds on the rate of cleaving fluorogenic MMP substrate (Enzo, BML-P128) by recombinant human MMP-12 catalytic domain (Enzo, BML-SE138) was carried out by methods known in the art. Briefly, to each well of a 96-well black opaque plate, all the reagents were sequentially added by pipetting, and the final reaction contained 4 nM of recombinant human MMP-12 catalytic domain, 4 μM of fluorogenic MMP substrate, and various concentrations (0.15 nM to 10,000 nM) of tested compound dilutions in HEPES buffer (pH 7.5) containing 10 mM of CaCl2, 0.01% Brij® 35 (polyoxyethylene (23) lauryl ether), and 0.1 mg/ml of BSA.
(§2) The enzyme and compounds were pre-incubated on a shaker to mix in wells. After an hour of mixing, fluorogenic substrate was added to each well. Reaction without enzyme was used as a blank control in the plate. The plate was then fed into a plate reader to measure fluorescence intensity at Excitation/Emission wavelengths of 340 nm/440 nm every 10 mins for at least 1 hour at 37° C. The IC50 of each compound in MMP-12 inhibition was determined by using a readout obtained at time point 30 minutes.
(§3) The MMP selectivity assay was performed by using other recombinant human MMPs, including MMP-1, MMP-2, MMP-3, MMP-7, MMP-8, MMP-9, MMP-10, MMP-13, and MMP-14. The IC50 of the compounds for the other recombinant human MMPs was determined as described above in Example 1, and are shown in Table 2.

[2] = molecular target: recombinant human MMP-1 (Homo sapiens (Human), UniProt P03956); test: MMP selectivity assay MMP-1; assay type: biochemical
Protocol: as §1, §2, §3

[3] = molecular target: recombinant human MMP-7 (Homo sapiens (Human), UniProt P09237); test: MMP selectivity assay MMP-7; assay type: biochemical
Protocol: as §1, §2, §3

[4] = molecular target: recombinant human MMP-13 (Homo sapiens (Human), UniProt P45452); test: MMP selectivity assay MMP-13; assay type: biochemical
Protocol: as §1, §2, §3

[5] = system: bleomycin-induced unilateral lung fibrosis; test: Bleomycin-induced SD rat unilateral lung fibrosis model (IPF); assay type: in vivo; design: Left lung bronchial and arteriole damage score, fibrosis core / Left lung bronchial and arteriole damage score, fibrosis border: scale not given here; Fibrosis score 1-3 (ratio of left lung fibrosis score) / Fibrosis score 4-8 (ratio of left lung fibrosis score) / Left lung fibrosis area: unit not given here; details: for Left lung bronchial and arteriole damage score, fibrosis border / Left lung bronchial and arteriole damage score, fibrosis core: 14 days; for Left lung bronchial and arteriole damage score, fibrosis border: model 6.56 ± 0.51; for Left lung bronchial and arteriole damage score, fibrosis core: model 8.34 ± 0.24; for Left lung fibrosis score (Ashcraft): model 3.7 ± 0.1; for Fibrosis score 1-3 (ratio of left lung fibrosis score): model 44.0 ± 3.1; for Fibrosis score 4-8 (ratio of left lung fibrosis score): model 56.0 ± 3.1; for Left lung fibrosis area: model 69.1 ± 3.3
Protocol: The purpose of this study was to evaluate the therapeutic effect of FC-4 on bleomycin (BLM) induced unilateral lung fibrosis model in Sprague Dawley (SD) rats. Male SD rats (n=50) were randomly divided into the following groups: Sham group (n=10), Model group (n=10), FC-4 administered at 10 mg/kg/day group (n=10), FC-4 administered at 30 mg/kg/day group (n=10), and FC-4 administered at 100 mg/kg/day group (n=10). All test drugs were delivered orally starting from day 8 of modeling for 14 days. Saline solution was taken for sham and model groups once a day, and FC-4 twice a day for drug treatment groups. Rats were anesthetized and the trachea was exposed. Saline was administrated via direct intra-trachea injection in the sham group, and the other groups' animals received a BLM injection at a dose of 3 mg/kg in volume of 1.0 ml/kg. All animals were processed using a non invasive lung function test with EMMS Whole Body Plethysmography system at pre-modeling, and at days 3, 7, 11, 14, 18 and 21 of modeling. One day after the last drug delivery, the left lung of all animals was perfused with 10% formalin, and processed for pathology analysis.
Animals: Species and quality level: SD rats, SPF grade. Gender and number: male, 93. Purchasing body weight range: 260-280 g. Company Certificate No.: SCXX (Jing) 2012-001, Beijing Vital River Laboratory Animal Technology Co., Ltd. Animal Housing: Rats were housed in the Animal House Facility of the Nanjing BioSciKin Co. Ltd. under international standards for temperature, humidity and light control system. The animal use protocol was reviewed and approved by the Institutional Animal Care and Use Committee (IACUC) of KCI Biotech Inc. All experimental procedures were conducted in conformity with institutional guidelines of KCI Biotech Inc.
Model Establishment: This study was carried out in strict accordance with the SOP institutional guidelines for the care and use of laboratory animals. Rats were anesthetized by intraperitoneal injection of pentobarbital sodium at dose of 50 mg/kg. Then rat neck skin was disinfected and opened in layers. The trachea was exposed carefully. Bleomycin (BLM) was directly injected into the left main bronchus at a dose of 3 mg/kg body weight in volume of 1.0 ml/kg via a cannula. After closing the trachea and skin in layers the animal was moved on an electric heat pad at 37° C. to await waking up from the anesthesia before returning to holding cages with free access to water and diet.
Experiment Grouping: Rats were assigned into 5groups: Sham (Group-1, n=10), Model (Group-2, n=10), FC-4-Low dose (Group-3, 10 mg/kg/day, n=10), FC-4-Middle dose (Group-4, 30 mg/kg/day, n=10), FC-4-High dose (Group-5, 100 mg/kg/day, n=10) (Table 1).
Drug Administration: Test article FC-4 were designed as an oral administration via a gastric perfusion. FC-4 was delivered twice a day starting from day-8 of modeling for 14 days. (Table 3.1).
Endpoint: a) Non invasive lung function test: All animals were given a non-invasive lung function examination with EMMS Whole Body Plethysmography (WBP) system at multiple time points during the study periods, including at pre-IPF modeling, day-3 of IPF, day-7 of IPF before dosing, day-11 of IPF, day-14 of IPF, day-18 of IPF and day-21 of IPF before sacrificing the animals, focusing on the parameters of tidal volume (TV), breath rate, inspiratory volume per minute (MV) and Penh. index. b) Left lung collection for pathology analysis: After the last examination of lung function, all animals were euthanized according to the standard SOP at KCI. After confirming the animal death, each animal received a systemic perfusion with 10% formaldehyde solution, then the left lung was harvested and perfused again with an equal volume of 10% formaldehyde solution (3 ml for each lung). […]

Chain of recombinant human MMP-1 (P03956 100-469): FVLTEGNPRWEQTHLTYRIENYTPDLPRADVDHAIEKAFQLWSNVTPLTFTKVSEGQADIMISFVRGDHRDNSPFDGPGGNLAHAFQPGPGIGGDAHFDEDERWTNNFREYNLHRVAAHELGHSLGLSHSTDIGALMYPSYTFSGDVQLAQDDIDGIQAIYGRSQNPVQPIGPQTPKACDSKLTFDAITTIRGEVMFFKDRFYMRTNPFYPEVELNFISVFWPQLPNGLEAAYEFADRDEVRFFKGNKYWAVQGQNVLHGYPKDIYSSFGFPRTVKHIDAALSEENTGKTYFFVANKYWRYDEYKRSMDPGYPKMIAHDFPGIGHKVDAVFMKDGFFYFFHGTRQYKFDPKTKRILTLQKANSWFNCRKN
Chain of recombinant human MMP-9 (P14780 94-707): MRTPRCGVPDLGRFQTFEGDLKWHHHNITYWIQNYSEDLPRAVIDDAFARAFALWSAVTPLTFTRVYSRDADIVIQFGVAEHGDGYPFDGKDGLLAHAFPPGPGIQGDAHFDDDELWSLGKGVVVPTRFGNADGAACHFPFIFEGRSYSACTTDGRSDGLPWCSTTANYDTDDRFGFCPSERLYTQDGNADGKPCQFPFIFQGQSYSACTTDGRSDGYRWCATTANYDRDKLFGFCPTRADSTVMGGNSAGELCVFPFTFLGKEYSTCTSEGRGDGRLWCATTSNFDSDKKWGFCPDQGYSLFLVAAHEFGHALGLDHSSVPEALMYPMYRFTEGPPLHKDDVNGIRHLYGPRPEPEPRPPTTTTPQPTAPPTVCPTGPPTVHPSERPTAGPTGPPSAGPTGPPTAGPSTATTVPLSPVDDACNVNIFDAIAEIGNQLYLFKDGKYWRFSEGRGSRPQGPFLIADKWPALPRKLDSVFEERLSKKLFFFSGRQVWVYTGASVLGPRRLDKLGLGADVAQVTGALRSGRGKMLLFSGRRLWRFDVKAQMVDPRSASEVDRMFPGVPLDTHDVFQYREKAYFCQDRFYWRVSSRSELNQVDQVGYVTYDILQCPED
Chain of recombinant human MMP-7 (P09237 95-267): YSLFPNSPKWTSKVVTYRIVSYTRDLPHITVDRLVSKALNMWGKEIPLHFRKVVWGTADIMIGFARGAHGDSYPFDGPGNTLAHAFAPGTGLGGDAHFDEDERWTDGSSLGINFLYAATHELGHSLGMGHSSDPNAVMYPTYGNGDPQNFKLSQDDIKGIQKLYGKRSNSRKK

Cc1cc(COc2ccc(Sc3ccoc3C3NC(=O)NC3=O)cc2)ccn1 (stereo not drawn) [FC-4]
IC50 [1]: 100 to 1000 nM | IC50 [2]: > 10000 nM | IC50 [3]: > 10000 nM | IC50 [4]: 10 to 100 nM | Left lung bronchial and arteriole damage score, fibrosis border ([5]; 10 mg/kg/d p.o. BID): 4.2 ± 0.516 | Left lung bronchial and arteriole damage score, fibrosis core ([5]; 10 mg/kg/d p.o. BID): 6.04 ± 0.19 | Left lung fibrosis score (Ashcraft) ([5]; 10 mg/kg/d p.o. BID): 2.5 ± 0.2 | Fibrosis score 1-3 (ratio of left lung fibrosis score) ([5]; 10 mg/kg/d p.o. BID): 82.0 ± 5.5 | Fibrosis score 4-8 (ratio of left lung fibrosis score) ([5]; 10 mg/kg/d p.o. BID): 18.0 ± 5.5 | Left lung fibrosis area ([5]; 10 mg/kg/d p.o. BID): 75.1 ± 3.0 | Left lung bronchial and arteriole damage score, fibrosis border ([5]; 30 mg/kg/d p.o. BID): 4.76 ± 0.16 | Left lung bronchial and arteriole damage score, fibrosis core ([5]; 30 mg/kg/d p.o. BID): 6.18 ± 0.26 | Left lung fibrosis score (Ashcraft) ([5]; 30 mg/kg/d p.o. BID): 2.6 ± 0.1 | Fibrosis score 1-3 (ratio of left lung fibrosis score) ([5]; 30 mg/kg/d p.o. BID): 81.0 ± 4.8 | Fibrosis score 4-8 (ratio of left lung fibrosis score) ([5]; 30 mg/kg/d p.o. BID): 19.0 ± 4.8 | Left lung fibrosis area ([5]; 30 mg/kg/d p.o. BID): 66.4 ± 2.9 | Left lung bronchial and arteriole damage score, fibrosis border ([5]; 100 mg/kg/d p.o. BID): 4.18 ± 0.53 | Left lung bronchial and arteriole damage score, fibrosis core ([5]; 100 mg/kg/d p.o. BID): 6.28 ± 0.21 | Left lung fibrosis score (Ashcraft) ([5]; 100 mg/kg/d p.o. BID): 2.4 ± 0.2 | Fibrosis score 1-3 (ratio of left lung fibrosis score) ([5]; 100 mg/kg/d p.o. BID): 84.0 ± 4.3 | Fibrosis score 4-8 (ratio of left lung fibrosis score) ([5]; 100 mg/kg/d p.o. BID): 16.0 ± 4.3 | Left lung fibrosis area ([5]; 100 mg/kg/d p.o. BID): 70.5 ± 3.0 | Body weight recovery ([5]; CPD treatment groups vs model group): no significant difference in body recovery | Share of Ashcraft score ≤ score 3 ([5]; all drug treatment groups, model over 60% ≥ score 4): ~80% | MMP-12 expression in fibrosis core (IHC) ([5]; clear dose dependent reduction (p>0.05 as printed)): significant reduction | Collagen-I deposition in fibrosis core (IHC) ([5]; each dose, p<0.05): significant dosing dependent reduction | Collagen-IV deposition in fibrosis core (IHC) ([5]; p<0.05): significant dose dependent reduction | Elastin expression in fibrosis core (IHC) ([5]; p<0.05): significant reduction | TGF-β1 expression in fibrosis core (IHC) ([5]; p<0.05): significant reduction | Non invasive lung function (TV, MV, breath rate, Penh) ([5]; vs vehicle treated animals, all doses): did not show any significant changes
